# Source: ChEMBL document CHEMBL3885861, “Open TG-GATES”
# Species on record: Rattus norvegicus
# Assay: Open TG-GATES - Regimen: Single
# Assay type: toxicity, organism-based, Sprague-Dawley
# Parameters: regimen Single, gender Male, age 6 weeks
# Conditions: in vivo, ip, 0 mg/kg, route intraperitoneal injection, dose level Control; for APTT / Bas / Eos / Fbg / Hb / Ht / Lym / MCH / MCHC / MCV / Mono / Neu / PT / Plat / RBC / Ret / WBC: tissue Blood; for KIDNEY_L / KIDNEY_R / KIDNEY_TOTAL: tissue Kidney; for LIVER: tissue Liver; for A/G / ALP / ALT / AST / BUN / CRE / Ca / Cl / DBIL / GLC / IP / K / LDH / Na / PL / RALB / TBIL / TC / TG / TP / gamma-GTP: tissue Plasma
compound,measurement,setting,value
CC(C)=CC(=O)C=C(C)C [PHORONE],TERMINAL_BW,3 h,224.3 g
same,APTT,3 h,17.2 s
same,Bas,3 h,0%
same,Eos,3 h,1%
same,Fbg,3 h,227.4 mg/dL
same,Hb,3 h,13.5 g/dL
same,Ht,3 h,40.2%
same,Lym,3 h,71%
same,MCH,3 h,22.1 pg
same,MCHC,3 h,33.5%
same,MCV,3 h,65.9 fL
same,Mono,3 h,8.2%
same,Neu,3 h,19.8%
same,PT,3 h,12.2 s
same,Plat,3 h,114.4 x10_4/uL
same,RBC,3 h,609.2 x10_4/ul
same,Ret,3 h,9.2%
same,WBC,3 h,97 x10_2/uL
same,KIDNEY_L,3 h,1 g
same,KIDNEY_R,3 h,1 g
same,KIDNEY_TOTAL,3 h,2 g
same,LIVER,3 h,10.7 g
same,A/G,3 h,1.9
same,ALP,3 h,863.8 IU/L
same,ALT,3 h,35.2 IU/L
same,AST,3 h,73.4 IU/L
same,BUN,3 h,13.6 mg/dL
same,CRE,3 h,0.5 mg/dL
same,Ca,3 h,11.1 mg/dL
same,Cl,3 h,106.2 meq/L
same,DBIL,3 h,0.02 mg/dL
same,GLC,3 h,195 mg/dL
same,IP,3 h,9.9 mg/dL
same,K,3 h,5.1 meq/L
same,LDH,3 h,86 IU/L
same,Na,3 h,139.6 meq/L
same,PL,3 h,142.8 mg/dL
same,RALB,3 h,3.6 g/dL
same,TBIL,3 h,0.4 mg/dL
same,TC,3 h,75.8 mg/dL
same,TG,3 h,99 mg/dL
same,TP,3 h,5.6 g/dL
same,gamma-GTP,3 h,1.4 IU/L
same,TERMINAL_BW,6 h,219.5 g
same,APTT,6 h,17.4 s
same,Bas,6 h,0%
same,Eos,6 h,0.6%
same,Fbg,6 h,223.8 mg/dL
same,Hb,6 h,13.2 g/dL
same,Ht,6 h,39.7%
same,Lym,6 h,74.6%
same,MCH,6 h,21.2 pg
same,MCHC,6 h,33.2%
same,MCV,6 h,63.9 fL
same,Mono,6 h,4.4%
same,Neu,6 h,20.4%
same,PT,6 h,12.3 s
same,Plat,6 h,118.6 x10_4/uL
same,RBC,6 h,620.2 x10_4/ul
same,Ret,6 h,9.1%
same,WBC,6 h,102.1 x10_2/uL
same,KIDNEY_L,6 h,0.9 g
same,KIDNEY_R,6 h,0.9 g
same,KIDNEY_TOTAL,6 h,1.9 g
same,LIVER,6 h,9.7 g
same,A/G,6 h,2
same,ALP,6 h,700.4 IU/L
same,ALT,6 h,34.8 IU/L
same,AST,6 h,72.8 IU/L
same,BUN,6 h,12.6 mg/dL
same,CRE,6 h,0.5 mg/dL
same,Ca,6 h,10.6 mg/dL
same,Cl,6 h,105.2 meq/L
same,DBIL,6 h,0.024 mg/dL
same,GLC,6 h,210.4 mg/dL
same,IP,6 h,10.2 mg/dL
same,K,6 h,4.7 meq/L
same,LDH,6 h,65 IU/L
same,Na,6 h,139 meq/L
same,PL,6 h,137 mg/dL
same,RALB,6 h,3.5 g/dL
same,TBIL,6 h,0.4 mg/dL
same,TC,6 h,77.8 mg/dL
same,TG,6 h,50 mg/dL
same,TP,6 h,5.2 g/dL
same,gamma-GTP,6 h,1.2 IU/L
same,TERMINAL_BW,9 h,217.4 g
same,APTT,9 h,17.2 s
same,Bas,9 h,0%
same,Eos,9 h,0.8%
same,Fbg,9 h,246.8 mg/dL
same,Hb,9 h,13.1 g/dL
same,Ht,9 h,39.7%
same,Lym,9 h,70%
same,MCH,9 h,21.7 pg
same,MCHC,9 h,33.1%
same,MCV,9 h,65.5 fL
same,Mono,9 h,4.6%
same,Neu,9 h,25.2%
same,PT,9 h,11.9 s
same,Plat,9 h,112.4 x10_4/uL
same,RBC,9 h,606.8 x10_4/ul
same,Ret,9 h,9.2%
same,WBC,9 h,108.4 x10_2/uL
same,KIDNEY_L,9 h,0.9 g
same,KIDNEY_R,9 h,1 g
same,KIDNEY_TOTAL,9 h,1.9 g
same,LIVER,9 h,9 g
same,A/G,9 h,2.1
same,ALP,9 h,720.6 IU/L
same,ALT,9 h,29.8 IU/L
same,AST,9 h,60.6 IU/L
same,BUN,9 h,11.4 mg/dL
same,CRE,9 h,0.5 mg/dL
same,Ca,9 h,10.7 mg/dL
same,Cl,9 h,105.8 meq/L
same,DBIL,9 h,0.066 mg/dL
same,GLC,9 h,200.6 mg/dL
same,IP,9 h,10.6 mg/dL
same,K,9 h,4.5 meq/L
same,LDH,9 h,74.8 IU/L
same,Na,9 h,138.8 meq/L
same,PL,9 h,138.6 mg/dL
same,RALB,9 h,3.8 g/dL
same,TBIL,9 h,0.4 mg/dL
same,TC,9 h,79.8 mg/dL
same,TG,9 h,42.8 mg/dL
same,TP,9 h,5.6 g/dL
same,gamma-GTP,9 h,1.4 IU/L
same,TERMINAL_BW,24 h,237.9 g
same,APTT,24 h,17.4 s
same,Bas,24 h,0%
same,Eos,24 h,1%
same,Fbg,24 h,276.4 mg/dL
same,Hb,24 h,12.9 g/dL
same,Ht,24 h,38.6%
same,Lym,24 h,73.6%
same,MCH,24 h,21.5 pg
same,MCHC,24 h,33.3%
same,MCV,24 h,64.8 fL
same,Mono,24 h,4.6%
same,Neu,24 h,20.6%
same,PT,24 h,11.7 s
same,Plat,24 h,118.3 x10_4/uL
same,RBC,24 h,596.2 x10_4/ul
same,Ret,24 h,8.4%
same,WBC,24 h,101.3 x10_2/uL
same,KIDNEY_L,24 h,1 g
same,KIDNEY_R,24 h,1.1 g
same,KIDNEY_TOTAL,24 h,2.1 g
same,LIVER,24 h,11.7 g
same,A/G,24 h,1.9
same,ALP,24 h,856.2 IU/L
same,ALT,24 h,28.8 IU/L
same,AST,24 h,55.6 IU/L
same,BUN,24 h,16.4 mg/dL
same,CRE,24 h,0.5 mg/dL
same,Ca,24 h,10.9 mg/dL
same,Cl,24 h,103.2 meq/L
same,DBIL,24 h,0.026 mg/dL
same,GLC,24 h,195.4 mg/dL
same,IP,24 h,8.7 mg/dL
same,K,24 h,4.9 meq/L
same,LDH,24 h,66.2 IU/L
same,Na,24 h,138.4 meq/L
same,PL,24 h,140.6 mg/dL
same,RALB,24 h,3.6 g/dL
same,TBIL,24 h,0.4 mg/dL
same,TC,24 h,78.4 mg/dL
same,TG,24 h,80.8 mg/dL
same,TP,24 h,5.6 g/dL
same,gamma-GTP,24 h,1.6 IU/L
